{"source": "patent US20090197917A1", "about": "“USE OF RIMONABANT FOR THE PREPARATION OF MEDICAMENTS USEFUL IN THE PREVENTION AND TREATMENT OF TYPE 2 DIABETES” (SANOFI-AVENTIS, priority 2005, published 2009)", "key": {"fa/fa obese Zucker rats": {"system": "fa/fa obese Zucker rats", "assay": "Long-term (12 months) treatment of obese Zucker rats: protection of the pancreas", "type": "in vivo, rat", "source_text": "The effect of a long-term (12 months) treatment with rimonabant was studied in Zucker rats with established obesity.\nThe fa/fa strain of obese Zucker rats is characterized by hyperphagia, obesity, dyslipidaemia and type 2 diabetes.\nAfter 12 months, the fa/fa obese Zucker rats treated with the vehicle show a marked hypertrophy of the pancreas (+38%, p<0.05)."}, "[1]": {"system": "obese subjects with type 2 diabetes", "assay": "Rio-Diabetes clinical study, 12 months, rimonabant 20 mg versus placebo", "type": "in vivo, human", "experimental": "The Rio-Diabetes clinical study, carried out over 12 months in 1045 obese subjects with type 2 diabetes treated by monotherapy (metformin or sulfonylureas) compares the effect of rimonabant at the dose of 20 mg versus a placebo product in weight reduction; the improvement of glycosylated haemoglobin (HbAlc), of glycemia, of insulinaemia and lipid parameters. A low-calorie diet (deficit of 600 Kcal/day) is prescribed for all the patients and is introduced 4 weeks before the start of the treatment period.\nThe insulin resistance is evaluated by the HOMA (Homeostasis Model Assessment) test described by Matthew D. R. et al. in Diabetologica, 1985, 28, 412-419."}, "[2]": {"settings": "logistic regression analysis with weight as co-variable"}, "[3]": {"settings": "rimonabant 20 mg, 12 months, p<0.001"}}, "data": [{"smiles": "Cc1c(C(=O)NN2CCCCC2)nn(-c2ccc(Cl)cc2Cl)c1-c1ccc(Cl)cc1", "note": "[rimonabant, N-piperidino-5-(4-chlorophenyl)-1-(2,4-dichlorophenyl)-4-methylpyrazole-3-carboxamide]", "values": [{"measurement": "hypertrophy of the pancreas", "setting": "fa/fa obese Zucker rats; 3 mg/kg/day, vehicle +38%", "result": "+17%"}, {"measurement": "hypertrophy of the pancreas", "setting": "fa/fa obese Zucker rats; 10 mg/kg/day, p<0.05, vehicle +38%", "result": "+1%"}, {"measurement": "effect independent of the weight loss for the improvement in HDL-c", "setting": "[1]; [2]", "result": "about 55%"}, {"measurement": "effect independent of the weight loss for the improvement in HbAlc", "setting": "[1]; [2]", "result": "about 55%"}, {"measurement": "effect independent of the weight loss for the triglycerides", "setting": "[1]; [2]", "result": "about 35%"}, {"measurement": "time after which the loss of weight appears stabilized", "setting": "[1]; rimonabant 20 mg", "result": 6, "unit": "months"}, {"measurement": "decrease in glycemia on an empty stomach", "setting": "[1]; rimonabant 20 mg group, 12 months, p<0.001 vs placebo", "result": "0.64 ± 1.96", "unit": "mmol/L"}, {"measurement": "improvement in insulin resistance evaluated by the HOMA test", "setting": "[1]; rimonabant 20 mg, 12 months", "result": "−0.5±5.7", "unit": "%"}, {"measurement": "decrease of triglycerides compared with the placebo group", "setting": "[1]; [3]", "result": "more than 16.4±3.3%"}, {"measurement": "difference in the reduction of the level of HbAlc compared with the placebo", "setting": "[1]; [3]", "result": "0.7±0.1", "unit": "%"}, {"measurement": "greater weight loss than that observed in the placebo group", "setting": "[1]; [3]", "result": "4.2 ± 0.4", "unit": "kg"}, {"measurement": "increase in the HDL-c level compared with the placebo", "setting": "[1]; [3]", "result": "greater than 8.4±1.2%"}, {"measurement": "reduction of insulinaemia on an empty stomach", "setting": "[1]; rimonabant 20 mg, 12 months, p=0.247 vs placebo", "result": "0.7±9.9", "unit": "μIU/mL"}, {"measurement": "reduction in the systolic blood pressure", "setting": "[1]; rimonabant 20 mg, p=0.020", "result": "0.8±12.8", "unit": "mmHg"}, {"measurement": "reduction in the diastolic blood pressure", "setting": "[1]; rimonabant 20 mg, p=0.060", "result": "1.9±8.2", "unit": "mmHg"}, {"measurement": "time at which the reduction of HbAlc is maximum", "setting": "[1]; rimonabant 20 mg, then maintained up to 12 months", "result": 9, "unit": "months"}, {"measurement": "HbAlc difference compared with the placebo", "setting": "[1]; rimonabant combined with a sulfonylurea, p<0.001", "result": "0.7±0.1", "unit": "%"}, {"measurement": "HbAlc difference compared with the placebo", "setting": "[1]; rimonabant combined with metformin, p<0.001", "result": "0.7±0.1", "unit": "%"}, {"measurement": "difference in weight loss compared with the placebo group", "setting": "[1]; rimonabant-metformin combination, p<0.001", "result": "4.3 ± 0.4", "unit": "kg"}, {"measurement": "difference in weight loss compared with the placebo group", "setting": "[1]; rimonabant-sulfonylurea combination, p<0.001", "result": "3.1 ± 0.5", "unit": "kg"}]}]}
